According to patent publication US11478515B2, “Compositions comprising probiotic and prebiotic components and mineral salts, with lactoferrin” (GlaxoSmithKline Consumer Healthcare S.R.L., priority 2009, dated 2022):
Where a SMILES comes first, the peptide text is derived from it. Bridges are numbered along the chain shown (N, C = ends). [ ]: non-standard residue; d: D form. The star is where a group is joined. Ileψ(thiazoline)Cys = CC[C@H](C)[C@H](N)C1=N[C@H](C(=O)*)CS1; dOrn = NCCC[C@@H](N)C(=O)O

The compounds below were run on Bifidobacterium longum R175 (assay: antibiotic resistance profile). Conditions: dose of each agent.
Type: cell-based

Compound	outcome (antibiotic resistance profile)
O=C(N[C@H](CO)[C@H](O)c1ccc([N+](=O)[O-])cc1)C(Cl)Cl [chloramphenicol]	susceptible
CC[C@H]1OC(=O)[C@H](C)[C@@H](O[C@H]2C[C@@](C)(OC)[C@@H](O)[C@H](C)O2)[C@H](C)[C@@H](O[C@@H]2O[C@H](C)C[C@H](N(C)C)[C@H]2O)[C@](C)(O)C[C@@H](C)C(=O)[C@H](C)[C@@H](O)[C@]1(C)O [erythromycin]	susceptible
CC1(C)S[C@@H]2[C@H](NC(=O)Cc3ccccc3)C(=O)N2[C@H]1C(=O)O [penicillin G]	susceptible
CO[C@H]1/C=C/O[C@@]2(C)Oc3c(C)c(O)c4c(O)c(c(/C=N/N5CCN(C)CC5)c(O)c4c3C2=O)NC(=O)/C(C)=C\C=C\[C@H](C)[C@H](O)[C@@H](C)[C@@H](O)[C@@H](C)[C@H](OC(C)=O)[C@@H]1C [Rifampin]	susceptible
Cc1noc(NS(=O)(=O)c2ccc(N)cc2)c1C [sulfisoxazole]	resistant
CC(=O)OCC1=C(C(=O)O)N2C(=O)[C@@H](NC(=O)Cc3cccs3)[C@H]2SC1 [cephalothin]	susceptible
Neomycin	resistant
CCC[C@@H]1C[C@@H](C(=O)N[C@@H]([C@H]2O[C@H](SC)[C@H](O)[C@@H](O)[C@H]2O)[C@@H](C)O)N(C)C1 [lincomycin]	intermediate
CC1(C)S[C@@H]2[C@H](NC(=O)[C@H](N)c3ccccc3)C(=O)N2[C@H]1C(=O)O [Ampicillin]	susceptible
gentamycin	resistant
CN[C@H](CC(C)C)C(=O)N[C@H]1C(=O)N[C@@H](CC(N)=O)C(=O)N[C@H]2C(=O)N[C@H]3C(=O)N[C@H](C(=O)N[C@H](C(=O)O)c4cc(O)cc(O)c4-c4cc3ccc4O)[C@H](O)c3ccc(c(Cl)c3)Oc3cc2cc(c3O[C@@H]2O[C@H](CO)[C@@H](O)[C@H](O)[C@H]2O[C@H]2C[C@](C)(N)[C@H](O)[C@H](C)O2)Oc2ccc(cc2Cl)[C@H]1O [Vancomycin]	susceptible
Polymyxin B	resistant
CO[C@@H]1[C@@H](OC(N)=O)[C@@H](O)[C@H](Oc2ccc3c(O)c(NC(=O)c4ccc(O)c(CC=C(C)C)c4)c(=O)oc3c2C)OC1(C)C [novobiocin]	susceptible
CC[C@H](C)[C@H](N)C1=N[C@H](C(=O)N[C@@H](CC(C)C)C(=O)N[C@H](CCC(=O)O)C(=O)N[C@H](C(=O)N[C@H]2CCCCNC(=O)[C@H](CC(N)=O)NC(=O)[C@@H](CC(=O)O)NC(=O)[C@H](Cc3cnc[nH]3)NC(=O)[C@@H](Cc3ccccc3)NC(=O)[C@H]([C@@H](C)CC)NC(=O)[C@@H](CCCN)NC2=O)[C@@H](C)CC)CS1 [Bacitracin] ({Ileψ(thiazoline)Cys}-L[dE]IK[dOrn]I[dF]H[dD]N; lactam 4-C)	susceptible
[H]/N=C(/N)N[C@H]1[C@H](O)[C@@H](O)[C@H](O[C@@H]2O[C@@H](C)[C@](O)(C=O)[C@H]2O[C@@H]2O[C@@H](CO)[C@H](O)[C@@H](O)[C@@H]2NC)[C@@H](N/C(N)=N\[H])[C@@H]1O [streptomycin]	resistant
